Measurements from PMC10386886, “First-in-class multifunctional TYMS nonclassical antifolate inhibitor with potent in vivo activity that prolongs survival” (JCI Insight, 2023).

Key:
MIA PaCa-2 cells = assay: MTS viability assay, MIA PaCa-2; format: cell-based; settings: Homo sapiens, 72-hour drug treatment, Figure 6E, highest concentration 350 μM
Description: Cells were harvested after 72 hours, and cell pellets were stored at –80°C. […] After 72 hours, cell viability was assessed by reduction of MTS using Cell Titer 96 R Aqueous One Solution Cell Proliferation Assay Kit (Promega, catalog G8081), following manufacturer’s recommendations. […] was measured on a SpectraMax M3 (Molecular Devices). Data were plotted in GraphPad Prism 9 to determine GI50 concentration. Chemical synthesis details, including characterization of each compound, can be found in the Supplemental section associated with this publication.

[1] = tested on: Luc-PANC-1 xenograft tumors; assay: Luc-PANC-1 subcutaneous xenograft tumor model; format: in vivo; settings: 25 mg/kg PO, 4 cycles, Figure 9
Source text: In the subcutaneous tumor model, the resulting Luc-PANC-1 xenograft tumors were monitored by direct tumor measurements and bioluminescence photon flux that is proportional to tumor size. […] Treatment was initiated 30 days after Luc-PANC-1 cell line subcutaneous injections (5 × 10^6 cells), when tumors reached 100 mm^3 in volume, generating a bioluminescence photon flux of 3 × 10^9 to 4 × 10^9 photons/s. […] Tumors from both treatment groups were excised, and the tumor mass was weighed (Figure 2E).
Luc-PANC-1 (5 × 10^6) and Luc-CM (0.5 × 10^6) cells were resuspended in 200 μL of PBS and injected subcutaneously or IP, respectively, into 6- to 8-week-old NSG mice. Tumor-bearing mice were imaged using Xenogen IVIS Lumina Bioluminescence Imaging System (PerkinElmer) every week after cell injection. […] For all animals, body weight was recorded weekly, and Luc-PANC-1 tumor volume was measured weekly with a caliper. For scheduled sacrifice experiments, animals were euthanized after 4 weeks of treatment. […] Tumor volume was calculated as volume = 0.52(length × width^2).
Prior to bioluminescence imaging the region where tumors were located was shaved. […] Following the injection of the D-luciferin substrate mice, were imaged using the Xenogen IVIS Lumina Bioluminescence Imaging System (PerkinElmer). The peak of luciferase photon flux was recorded 6 minutes after injection of the D-luciferin substrate. The total photon flux was analyzed and restricted to tumor region of interest using Living Image v2.60.1 software (Imaging Systems).

CCc1nc(N)nc(N)c1-c1ccc(N(C)Cc2ccc3c(c2)OCO3)c([N+](=O)[O-])c1 [Compound 19-S7]
GI50 (MIA PaCa-2 cells): 200 nM | Bioluminescence photon flux [1]: reduced bioluminescence photon flux | Body weight [1]: did not show adverse effects on or declines in body weight | Final excised tumor mass [1]: reduced mass of the final excised tumors | Tumor volume [1]: reduced and stable tumor volumes
